These results are taken from PubChem BioAssay AID248 (DTP/NCI, 2004).

The subject of this test is L1210 leukemia ip in BDF1 mice, survival T/C. In words: NCI In Vivo Anticancer Drug Screen. Data for tumor model L1210 Leukemia (intraperitoneal) in B6D2F1 (BDF1) mice. To be noted: endpoint: mean survival time, higher = longer survival. The essentials:
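Mice bearing the transplanted tumor received compound or vehicle. Survival of the treated group was divided by that of the vehicle-treated control group to give the ratio.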

Where [1] appears, read: dose: 100.0 mg/kg/injection, schedule: Q04DX003 (ip), vehicle: saline.
Setting [2] is: dose: 200.0 mg/kg/injection, schedule: Q04DX003 (ip), vehicle: saline.
Setting [3] is: dose: 400.0 mg/kg/injection, schedule: Q04DX003 (ip), vehicle: saline.
The mark [4] stands for this setting: dose: 100.0 mg/kg/injection, schedule: Q04DX002 (ip), vehicle: saline with Tween-80.
[5] abbreviates: dose: 100.0 mg/kg/injection, schedule: Q04DX003 (ip), vehicle: saline with Tween-80.
The mark [6] stands for this setting: dose: 200.0 mg/kg/injection, schedule: Q01DX009 (ip), vehicle: saline with Tween-80.
Where [7] appears, read: dose: 200.0 mg/kg/injection, schedule: Q04DX003 (ip), vehicle: saline with Tween-80.
Where [8] appears, read: dose: 400.0 mg/kg/injection, schedule: Q01DX009 (ip), vehicle: saline with Tween-80.
[9] abbreviates: dose: 400.0 mg/kg/injection, schedule: Q04DX003 (ip), vehicle: saline with Tween-80.
Where [10] appears, read: dose: 100.0 mg/kg/injection, schedule: Q04DX003 (ip), vehicle: Klucel (hydroxypropylcellulose) (HPC).
[11] abbreviates: dose: 200.0 mg/kg/injection, schedule: Q04DX003 (ip), vehicle: Klucel (hydroxypropylcellulose) (HPC).
The mark [12] stands for this setting: dose: 400.0 mg/kg/injection, schedule: Q04DX003 (ip), vehicle: Klucel (hydroxypropylcellulose) (HPC).

Inconclusive results and toxic doses are left out.

As for `CN(CCN(C)S(=O)(=O)c1ccccc1)S(=O)(=O)c1ccccc1`, the T/C is, setting by setting: (dose: 75.0 mg/kg/injection, schedule: Q01DX009 (ip), vehicle: Klucel (hydroxypropylcellulose) (HPC)) 94 % of control; (dose: 150.0 mg/kg/injection, schedule: Q01DX009 (ip), vehicle: Klucel (hydroxypropylcellulose) (HPC)) 107 % of control; (dose: 300.0 mg/kg/injection, schedule: Q01DX009 (ip), vehicle: Klucel (hydroxypropylcellulose) (HPC)) 95 % of control.
Turning to `Cc1cc(=O)c2cc(Cc3ccc4[nH]c(C)cc(=O)c4c3)ccc2[nH]1`, the T/C runs as follows: (dose: 50.0 mg/kg/injection, schedule: Q01DX009 (ip), vehicle: saline) 91 % of control; (dose: 100.0 mg/kg/injection, schedule: Q01DX009 (ip), vehicle: saline) 88 % of control; under setting [1], 94 % of control; under setting [2], 94 % of control; under setting [3], 93 % of control.
As to `O=C1CCC(Cc2cccc3ccccc23)N1` (stereo not given), the T/C reads like this: under setting [4], 97 % of control; (dose: 200.0 mg/kg/injection, schedule: Q04DX002 (ip), vehicle: saline with Tween-80) 91 % of control; (dose: 400.0 mg/kg/injection, schedule: Q04DX002 (ip), vehicle: saline with Tween-80) 94 % of control.
As for `c1ccc(C2(C3(c4ccccc4)SCCCS3)CN2)cc1` (stereo not given), the T/C runs as follows: (dose: 100.0 mg/kg/injection, schedule: Q01DX001 (ip), vehicle: Klucel (hydroxypropylcellulose) (HPC)) 101 % of control; (dose: 200.0 mg/kg/injection, schedule: Q01DX001 (ip), vehicle: Klucel (hydroxypropylcellulose) (HPC)) 97 % of control.
Turning to `CC1(C)CCC(N)CC1`, the T/C was 93 % of control (dose: 75.0 mg/kg/injection, schedule: Q01DX001 (ip), vehicle: saline) and 95 % of control (dose: 150.0 mg/kg/injection, schedule: Q01DX001 (ip), vehicle: saline).
Regarding `COc1cccc(NC(=O)CCC(=O)O)c1`, the T/C is, setting by setting: (dose: 25.0 mg/kg/injection, schedule: Q01DX009 (ip), vehicle: saline with Tween-80) 105 % of control; (dose: 50.0 mg/kg/injection, schedule: Q01DX009 (ip), vehicle: saline with Tween-80) 100 % of control; (dose: 50.0 mg/kg/injection, schedule: Q04DX003 (ip), vehicle: saline with Tween-80) 98 % of control; under setting [5], 103 % of control; under setting [6], 88 % of control; under setting [7], 97 % of control. In addition, the T/C reads like this: under setting [8], 95 % of control; under setting [9], 103 % of control.
Turning to `CN=C(N)c1ccc(N=C(N)c2ccc(N=C(N)c3ccc(C(N)=NC)cc3)cc2)cc1`, the T/C (dose: 3.7 mg/kg/injection, schedule: Q01DX001 (ip), vehicle: water) was 108 % of control; the T/C (dose: 5.3 mg/kg/injection, schedule: Q01DX001 (ip), vehicle: water) was 103 % of control; the T/C (dose: 8.0 mg/kg/injection, schedule: Q01DX001 (ip), vehicle: water) is 102 % of control; the T/C (dose: 12.0 mg/kg/injection, schedule: Q01DX001 (ip), vehicle: water) is 108 % of control.
With `Clc1nc2ccccc2s1.Clc1nc2ccccc2s1.Clc1nc2ccccc2s1.Clc1nc2ccccc2s1.[Cl][Rh][Cl]`, the T/C (dose: 3.13 mg/kg/injection, schedule: Q04DX003 (ip), vehicle: distilled water + Tween-80) is 94 % of control; the T/C (dose: 6.25 mg/kg/injection, schedule: Q04DX003 (ip), vehicle: distilled water + Tween-80) is 96 % of control; the T/C (dose: 12.5 mg/kg/injection, schedule: Q04DX003 (ip), vehicle: distilled water + Tween-80) is 96 % of control; the T/C (dose: 25.0 mg/kg/injection, schedule: Q04DX003 (ip), vehicle: distilled water + Tween-80) is 102 % of control; the T/C (dose: 50.0 mg/kg/injection, schedule: Q04DX003 (ip), vehicle: distilled water + Tween-80) is 103 % of control; the T/C (dose: 100.0 mg/kg/injection, schedule: Q04DX003 (ip), vehicle: distilled water + Tween-80) is 102 % of control. Under “dose: 200.0 mg/kg/injection, schedule: Q04DX003 (ip), vehicle: distilled water + Tween-80”, the T/C is 103 % of control.
In the case of `CCCCCCCC(=O)NCCCC`, the T/C (dose: 100.0 mg/kg/injection, schedule: Q01DX009 (ip), vehicle: Klucel (hydroxypropylcellulose) (HPC)) is 105 % of control; the T/C under setting [1] was 99 % of control; the T/C (dose: 200.0 mg/kg/injection, schedule: Q01DX009 (ip), vehicle: Klucel (hydroxypropylcellulose) (HPC)) is 95 % of control; the T/C under setting [2] was 101 % of control; the T/C (dose: 400.0 mg/kg/injection, schedule: Q01DX009 (ip), vehicle: Klucel (hydroxypropylcellulose) (HPC)) was 109 % of control; the T/C under setting [3] is 99 % of control.
Consider `CC(=O)n1c(O)c(N=Nc2ccc([N+](=O)[O-])cc2[N+](=O)[O-])c2cc(Br)ccc21`, for which the T/C is, setting by setting: (dose: 100.0 mg/kg/injection, schedule: Q04DX002 (ip), vehicle: Klucel (hydroxypropylcellulose) (HPC)) 92 % of control; (dose: 200.0 mg/kg/injection, schedule: Q04DX002 (ip), vehicle: Klucel (hydroxypropylcellulose) (HPC)) 92 % of control; (dose: 400.0 mg/kg/injection, schedule: Q04DX002 (ip), vehicle: Klucel (hydroxypropylcellulose) (HPC)) 92 % of control.
Turning to `C/C=C/CC1(CCC(C)C)C(=O)NC(=O)NC1=O`, the T/C (dose: 75.0 mg/kg/injection, schedule: Q01DX001 (ip), vehicle: acetone) is 95 % of control; the T/C (dose: 75.0 mg/kg/injection, schedule: Q01DX001 (ip), vehicle: other) is 101 % of control; the T/C (dose: 150.0 mg/kg/injection, schedule: Q01DX001 (ip), vehicle: acetone) is 101 % of control; the T/C (dose: 150.0 mg/kg/injection, schedule: Q01DX001 (ip), vehicle: other) is 101 % of control; the T/C (dose: 300.0 mg/kg/injection, schedule: Q01DX001 (ip), vehicle: other) is 105 % of control.
On to `CCOC(=O)CNC(=O)Nc1ccc(NC(C)=O)cc1`, for which the T/C was 94 % of control (dose: 100.0 mg/kg/injection, schedule: Q01DX009 (ip), vehicle: saline with Tween-80); 94 % of control under setting [6]; 88 % of control under setting [8].
On to `CCCCCCCCCCCCCCCCOc1ccccc1/C=C/C(=O)O`, for which the T/C is, setting by setting: under setting [10], 91 % of control; under setting [11], 88 % of control; under setting [12], 95 % of control.
Consider `COc1ccc(NC(=O)Nc2cccc(Cl)c2C)cc1`, for which the T/C (dose: 100.0 mg/kg/injection, schedule: Q01DX009 (sc), vehicle: olive oil, sesame oil, peanut oil) is 100 % of control; the T/C (dose: 100.0 mg/kg/injection, schedule: Q04DX003 (sc), vehicle: olive oil, sesame oil, peanut oil) was 100 % of control; the T/C (dose: 200.0 mg/kg/injection, schedule: Q01DX009 (sc), vehicle: olive oil, sesame oil, peanut oil) was 96 % of control; the T/C (dose: 200.0 mg/kg/injection, schedule: Q04DX003 (sc), vehicle: olive oil, sesame oil, peanut oil) is 98 % of control; the T/C (dose: 400.0 mg/kg/injection, schedule: Q01DX009 (sc), vehicle: olive oil, sesame oil, peanut oil) is 100 % of control; the T/C (dose: 400.0 mg/kg/injection, schedule: Q04DX003 (sc), vehicle: olive oil, sesame oil, peanut oil) is 101 % of control.
Regarding `COc1cccnc1/C=N/NC(N)=S`, the T/C (dose: 12.5 mg/kg/injection, schedule: Q01DX009 (ip), vehicle: saline with Tween-80) was 150 % of control.
Regarding `CCc1cc2c(cc1C(=O)CCN1CCCC1)C(C)(C)CCC2(C)C`, the T/C is 90 % of control (dose: 25.0 mg/kg/injection, schedule: Q04DX002 (ip), vehicle: saline with Tween-80); 90 % of control (dose: 50.0 mg/kg/injection, schedule: Q04DX002 (ip), vehicle: saline with Tween-80); 90 % of control under setting [4].
With `CCCCN(CCCC)CP(=S)(CN(CCCC)CCCC)CN(CCCC)CCCC`, the T/C under setting [10] is 104 % of control, the T/C under setting [11] is 104 % of control and the T/C under setting [12] is 107 % of control.
As for `c1ccc(-c2nnc(-c3ccc4ccc5cccnc5c4n3)nc2-c2ccccc2)cc1`, the T/C is, setting by setting: under setting [5], 93 % of control; under setting [7], 104 % of control; under setting [9], 104 % of control.
